Assay results: US12441706B2, “Protein degradation agent compound preparation method and application” (SHANGHAI JEMINCARE PHARMACEUTICALS CO., LTD., priority 2019, dated 2025)

Experiments:
[1] = system: LNcap FGC cells; experiment: Inhibition of proliferation of LNcap FGC cells (Cell Titer Glo, 6 days); assay type: cell-based; conditions: Homo sapiens, LNCaP, 144 h
Experimental: Tumor cell line LNcap FGC (ATCC catalog number CRL-1740) was cultured in RPMI 1640 (Gibco catalog number 11875-093) and DMEM (Gibco catalog number. 11965-092) medium containing 10% FBS (Gibco catalog number 10099-141C), respectively.
(§1) LNcap FGC cells were inoculated in a 384-well plate (Perkin Elmer catalog number 6007460) at a cell density of 400 cells/well in a volume of 20 μL/well and incubated overnight in a carbon dioxide incubator (Thermo). The prepared compound solutions of different concentrations were added in a volume of 5 μL/well. The corresponding vehicle control was set at the same time. After being cultured in the incubator for 6 days, the cell plate and the contents were equilibrated to room temperature, and 25 μL of Cell Titer Glor (Promega catalog number G7573) was added to each well, shook and mixed well, incubated in dark for 10-30 minutes, and the signal values were detected with Envision microplate reader (PerkinElmer).
(§2) The percentage inhibition rate of compound-treated wells was calculated from the vehicle control wells on the plate, and the percentage inhibition rate data corresponding to different concentrations were fitted by GraphPad prism, and the IC50 values were calculated by 4-parameter nonlinear logic formula.

[2] = target: T1, androgen receptor (Homo sapiens, UniProt P10275); experiment: In-Cell-Western determination of androgen receptor degradation in VCaP cells; assay type: cell-based; conditions: 24 hours treatment
T1 construct: endogenous in cells; host or cells: VCaP cells
T1 sequence (P10275 1-920): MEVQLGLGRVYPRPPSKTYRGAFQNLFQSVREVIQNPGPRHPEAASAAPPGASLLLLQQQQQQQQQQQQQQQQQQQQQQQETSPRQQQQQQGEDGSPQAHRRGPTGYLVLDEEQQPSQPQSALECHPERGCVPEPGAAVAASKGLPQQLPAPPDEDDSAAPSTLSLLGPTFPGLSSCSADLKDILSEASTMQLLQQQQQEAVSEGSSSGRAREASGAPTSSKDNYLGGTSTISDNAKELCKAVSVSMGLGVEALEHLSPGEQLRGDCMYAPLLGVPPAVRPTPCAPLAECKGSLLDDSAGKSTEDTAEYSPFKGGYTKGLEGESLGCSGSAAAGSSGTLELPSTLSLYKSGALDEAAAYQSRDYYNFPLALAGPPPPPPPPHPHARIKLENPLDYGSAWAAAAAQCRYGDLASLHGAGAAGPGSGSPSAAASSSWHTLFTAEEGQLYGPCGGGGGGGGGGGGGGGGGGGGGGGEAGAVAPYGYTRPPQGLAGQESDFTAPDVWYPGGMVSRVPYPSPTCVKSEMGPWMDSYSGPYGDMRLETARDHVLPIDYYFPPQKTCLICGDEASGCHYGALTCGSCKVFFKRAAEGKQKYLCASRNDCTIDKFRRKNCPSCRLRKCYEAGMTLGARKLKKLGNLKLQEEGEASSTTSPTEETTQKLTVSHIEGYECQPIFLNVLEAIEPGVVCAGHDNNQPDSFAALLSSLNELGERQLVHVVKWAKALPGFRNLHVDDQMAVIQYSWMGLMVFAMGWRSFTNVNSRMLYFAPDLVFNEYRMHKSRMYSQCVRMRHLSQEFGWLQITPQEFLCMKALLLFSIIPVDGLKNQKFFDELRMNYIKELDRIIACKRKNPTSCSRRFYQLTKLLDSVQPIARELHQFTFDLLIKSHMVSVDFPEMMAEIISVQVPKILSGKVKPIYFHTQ
Experimental: The determination evaluated the properties of the compounds in Vcap cells. Intracellular androgen receptor was determined by In-Cell-Western according to the determination steps described below.
In poly-D-Lysin pretreated 96-well cell culture plate (Corning 3599), Vcap cells were divided into […] volume, and inoculated with 50,000 cells/well in Vcap cell assay medium [DMEM containing phenol red (Gibco catalog number: 11995065); fetal bovine serum FBS (Gibco catalog number: 10099141C)]. Cells were cultured for at least two days.
1. First treated cells with compound. Compounds were gradient diluted with DMSO and cell culture medium, so that DMSO contained in cell culture plates was diluted to 0.5% —polypropylene plates were used according to the following protocol:
(1)(i) 200× stock plate in DMSO was prepared; (ii) 10 mM stock solution was diluted 1:4 with DMSO (10 μL stock solution+40 μL DMSO)=2000 μM, then entered into row 2; (iii) 1:4 (10 μL protac+40 μL DMSO) gradient dilution was performed in row 2 to row 9, and row 1 was reserved for 2000 μM reference compound and row 10 for DMSO. (iv) A total of 8 concentrations (final concentrations on the 200×plate were 2000 μM, 400 μM, 80 μM, etc.). (i) 3×stock solution in medium was prepared; (ii) 3 μL of 200× stock solution was transferred to 197 μL of culture medium (using 12-channel pipette, from line 1 to line 10), i.e. 3× stock solution plate. (iii) The stock solution plate was mixed evenly. (3) (i) The culture medium of Vcap cells was replaced with fresh culture medium, 100 μL volume culture medium. (ii) The well-mixed 3×stock solution was transferred to the cell culture plate (using 12-channel pipette, and 50 μL of stock solution was transferred from line 1 to line 10). (iii) Cells were cultured for 24 hours.
2. The expression level of intracellular androgen receptor after compound treatment was […] and determined according to the following method.
(1)(i) Equal volume of 8% paraformaldehyde was added to the cell culture plate for cell fixation. The fixing solution in the cell plate was discarded and washed three times with PBS. (ii) Triton solution (1:1000 dilution of the stock solution) was prepared. The solution in the cell plate was discarded, and 200 μL of Triton diluent was added into each well. (iii) 2×blocking solution (1:4 dilution of 10×blocking stock solution) was prepared. The solution in the cell plate was discarded, and 100 μL of 2×blocking solution was added into each well. (iv) Primary antibody solution (Androgen receptor Rabbbit mAb, Cell Signaling Technology catalog number: 5153; 1:1000 dilution) was prepared. The solution in the cell plate was discarded, 100 μL volume of primary antibody diluent was added to each well, and incubated at 4° C. overnight. (v) The primary antibody solution was discarded and the cell plate was washed with 1×Wash buffer. (vi) Secondary antibody solution (GOAT Antirabbit IgG (H+L), HRP, Thermo catalog number: 31460; 1:5000 dilution) was prepared, and 100 μL volume of secondary antibody dilution was added to each well for incubation. (vii) The secondary antibody solution in the cell plate was discarded and the cell plate was washed with 1× Wash buffer. (viii) TMB chromogenic solution (BD catalog number: 550534) was prepared, and 100 μL chromogenic solution was added into each well. (ix) 50 μL volume of stop solution (BD catalog number: 550534) was added to each well. (x) The absorption values at OD 450 nm and 570 nm were read though EnVision. (2)(i) Normalized analysis was performed on the number of cells in each well. The solution in the cell plate was discarded, and washed with wash buffer for three times. (ii) Janus dilution (1:3 dilution) was prepared. (iii) 50 μL volume diluent was added to each well for incubation. (iv) The solution in the plate was discarded and washed with deionized water. […]

[3] = system: VCap cells; experiment: Inhibition of proliferation of VCap cells (Cell Titer Glo, 6 days); assay type: cell-based; conditions: Homo sapiens, VCaP, 144 h
Experimental: Tumor cell line VCap FGC (ATCC catalog number CRL-2876) was cultured in DMEM (Gibco catalog number 11965-092) medium containing 10% FBS (Gibco catalog number 10099-141C), respectively. During the determination, Vcap cells were replaced with DMEM medium containing 5% FBS and 0.1 nM R1881 (Sigma catalog number R0908).
as §1, with “Vcap” for “LNcap”, “1200” for “400”, “shake” for “shook”, “mix” for “mixed”, “though” for “with”
as §2, with “from” for “from the”

[4] = In vivo pharmacokinetics in mice, intravenous injection and oral administration; design: species or system mouse; conditions: male CD1 mice
Experimental: In this experimental example, in vivo pharmacokinetics in mice were evaluated by intravenous injection and oral administration.
Experimental methods and conditions: Male CD1 mice, aged 6-8 weeks, all animals were free access to food and water, and were given a single dose of the compound to be tested at 1 mg/Kg by intravenous injection (solvent 5% DMSO/15% Solutol/80% Saline), at 5 min, 15 min, 30 min, 1 hr, 2 hr, 4 hr, 8 hr, 24 hr, 48 h after drug administration, or oral gavage administration of 10 mg/kg (solvent 5% DMSO/10% Solutol/85% Saline), at 15 min, 30 min, 1 hr, 2 hr, 4 hr, 6 h, 8 hr, 24 hr, 48 h after administration, blood was collected from the orbit, no less than 50 μL for each sample, heparin sodium was used for anticoagulation, and then placed on ice after collection, and centrifuged within 1 hour to separate the plasma for testing. The plasma concentration of the drug was detected by liquid tandem mass spectrometry (LC/MS/MS), and the pharmacokinetic parameters were calculated by Phoenix WinNonlin software.

[5] = system: human prostate cancer VCaP cell subcutaneous xenograft tumor; experiment: In vivo pharmacodynamic study, human prostate cancer VCaP cell subcutaneous xenograft tumor CB17 SCID mouse model; conditions: castrated CB17 SCID mice, 24th day after administration
Experimental: Experimental animal: male mice of CB17 SCID strain, aged 6-8 weeks, weighing 18-22 grams, supplier: Beijing Weitong Lihua Laboratory Animal Technology Co., Ltd. Shanghai Branch, animal certificate number: 20170011005577. Animals were reared in the experimental environment for 7 days after arrival and the experiment was started.
Experimental method: Human prostate cancer cell VCaP cells (ATCC-CRL-2876) were cultured in vitro in monolayer, and the culture conditions were DMEM medium with 20% fetal bovine serum, 100 U/mL penicillin and 100 μg/mL streptomycin, cultured in a 5% CO2 incubator at 37° C. Conventional digestion with trypsin-EDTA was performed twice a week for passage. When the cell saturation was 80%-90% and the number reached the requirement, the cells were collected, counted, and inoculated. 0.2 mL (10× 10^6 cells+Matrigel) VCaP cells were subcutaneously inoculated into the left upper limb of each mouse, and castration was performed 33 days after cell inoculation. When the average tumor volume reached 119 mm^3, the drugs were administered in groups, and the doses of compound 14 were set to four groups: 1 mg/kg, 3 mg/kg, 10 mg/kg and 30 mg/kg.
Daily observation of experimental animals: the health status and death of animals were monitored every day. Routine examinations included observing the effects of tumor growth and drug treatment on the daily behavior of animals, such as behavioral activities, food and water intake (visual observation only), and weight changes (body weight measured three times a week), physical signs or other abnormal conditions.
Tumor measurements and experimental indicators: Experimental indicators were to examine whether tumor growth was inhibited, delayed or cured. Tumor diameters were measured with vernier calipers three times a week.
The calculation formula of tumor volume is: V=0.5a×b2, where a and b represented the long diameter and short diameter of the tumor, respectively. The antitumor effect of the compound was evaluated by TGI (%) or relative tumor proliferation rate T/C (%). TGI (%), reflecting the tumor growth inhibition rate. Calculation of TGI (%): TGI (%)=[1−(average tumor volume at the end of administration of a certain treatment group−average tumor volume at the beginning of administration of the treatment group)/(average tumor volume at the end of treatment in the vehicle control group−average tumor volume at the beginning of treatment in the vehicle control group)]×100%. Relative tumor proliferation rate T/C (%): the calculation formula is as follows: T/C %=TRTV/CRTV×100% (TRTV: RTV in the treatment group; CRTV: RTV in the negative control group). The relative tumor volume (RTV) was calculated according to the results of tumor measurement, and the formula is RTV=Vt/V0, where V0 is the average tumor volume measured at the time of group administration (i.e. d0), and Vt is the average tumor volume at a certain measurement, and TRTV and CRTV were taken on the same day. After the experiment, the tumor weight would be detected, and the percentage of T/Cweight would be calculated. Tweight and Cweight represent the tumor weight of the administration group and the vehicle control group, respectively.
Statistical analysis: Statistical analysis included the mean and standard error (SEM) of tumor volume at each time point for each group. […] T-test was used for comparison between two groups, and one-way ANOVA was used for comparison between three or more groups. […]

[6] = mouse, intravenous administration 1 mg/kg, plasma
[7] = mouse, oral administration 10 mg/kg, plasma

Work on `CC1(C)C(=O)N(c2ccc(C#N)c(Cl)c2)c2ccc(-c3ccc(N4CC(CN5CCN(c6ccc7c(c6)C(=O)N(C6CCC(=O)NC6=O)C7=O)CC5)C4)nc3)cc21` (stereo not drawn) [Compound 9] yielded an Emax [1] of 100%, an IC50 [1] of 35.5 nM and a DC50 ([2]; concentration for half of the maximal degradation of AR in VCaP cells) of 121 nM. It also gave a Dmax ([2]; maximum degradation of AR in VCaP cells) of 56%, an Emax [3] of 97% and an IC50 [3] of 61 nM.

Work on `CC1(C)[C@H](NC(=O)c2ccc(N3CCC(CN4CCN(c5ccc6c(c5)C(=O)N(C5CCC(=O)NC5=O)C6=O)CC4)CC3)cc2)C(C)(C)[C@H]1Oc1ccc(C#N)c(Cl)c1` (stereo partly drawn) [Reference substance 1, reference compound] yielded an F ([4]; oral administration 10 mg/kg vs intravenous 1 mg/kg) of 99.0%, an AUC(0-inf) [4, 6] of 5360 ng·h/mL and a clearance [4, 6] of 3.11 mL/min/kg. The half-life [4, 6] was 13.4 h, the AUC(0-inf) [4, 7] was 53000 ng·h/mL and the Cmax [4, 7] was 1420 ng/mL. For the same molecule, the half-life [4, 7] was 14.4 h and the “tumor growth inhibition rate (TGI)” value ([5]; dose 10 mpk) was 60%.

With `CNC(=O)c1ccc(N2C(=S)N(c3ccc(C#N)c(C(F)(F)F)c3)C(=O)C2(C)C)cc1F` [enzalutamide, reference compound] the “tumor growth inhibition rate (TGI)” value [5] was 45%.
